Laboratory results as given in BindingDB's records for doi:10.7270/Q2736PC9 (Broad Institute, 2010).

These compounds were tested against T1, Alkanal monooxygenase alpha chain (Vibrio harveyi, UniProt P07740) (assay: Vibrio harveyi growth inhibition, dose response, counter-screen for quorum sensing inhibitor project, absorbance (AID 434943)).
T1 sequence (P07740 whole entry): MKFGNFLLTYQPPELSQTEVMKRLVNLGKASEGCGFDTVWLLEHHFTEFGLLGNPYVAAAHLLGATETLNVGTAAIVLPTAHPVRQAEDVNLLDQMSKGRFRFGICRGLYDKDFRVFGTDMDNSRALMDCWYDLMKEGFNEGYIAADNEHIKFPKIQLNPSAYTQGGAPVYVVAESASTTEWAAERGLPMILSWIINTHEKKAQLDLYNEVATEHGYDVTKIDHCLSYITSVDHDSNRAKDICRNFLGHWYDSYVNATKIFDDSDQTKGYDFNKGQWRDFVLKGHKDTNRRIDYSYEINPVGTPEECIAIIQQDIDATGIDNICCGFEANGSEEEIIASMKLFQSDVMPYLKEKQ

| EC50 [µM] | Structure (SMILES) |
| --- | --- |
| > 160 | Cc1cccc(NS(=O)(=O)c2ccc(Oc3ccccc3)cc2)n1 [SMR000071466] |
| > 160 | Cn1cnc(S(=O)(=O)Nc2ccc(OC(F)(F)F)cc2)c1 [SMR000314513] |

Further lines, the compound ahead of its results:

| Structure (SMILES) | EC50 [µM] |
| --- | --- |
| COc1cc(NC(=O)CN2C(=O)NC(c3ccccc3)(c3ccccc3)C2=O)cc(OC)c1 [MLS001176525] | > 160 |
| CN(C)S(=O)(=O)c1ccc(NC(=S)NC(=O)Cc2ccccc2)cc1 [N-[[4-(dimethylsulfamoyl)phenyl]carbamothioyl]-2-phenyl-ethanamide] | > 160 |
| C=Cn1c(C(=O)O)ccc1-c1ccc(CC)cc1 | > 160 |
| CCCc1ccc(S(=O)(=O)N(C)S(=O)(=O)c2ccc(F)cc2)cc1 [N-(4-fluorophenyl)sulfonyl-N-methyl-4-propylbenzenesulfonamide] | > 160 |
| CCc1ccc(S(=O)(=O)Nc2ccc(Br)cn2)cc1 [MLS001211346] | > 160 |
